From article PMC7730206, “2-Deoxy-D-glucose Promotes Buforin IIb-Induced Cytotoxicity in Prostate Cancer DU145 Cells and Xenograft Tumors” (Molecules, 2020) come the findings set out here.

Common to all, as to type: cell-based, human
Test [1] has as its system DU145 cells. As to the kind of experiment: L-lactate production. To be noted: 2 mM 2-DG 24 h; 2 μM buforin IIb 12 h; combination: 2-DG pretreatment 12 h then buforin IIb 12 h; lactate in medium. The procedure:
(§1) Cells were seeded at approximately 3 × 10^5 cells/mL in 6-well plates and treated with 2-DG (2 mM) alone for 24 h and buforin IIb alone (2 μM) or both for 12 h. After centrifugation, the culture medium and cells were collected to estimate the L-lactate and ATP content using the ATP content assay kit (Solarbio, Beijing, China) and L-lactate assay kit (Jiancheng Bioengineering, Nanjing, China) according to the manufacturer’s protocol. […] The collected cells were subjected to ultrasonic disruption and centrifuged at 8000× g for 10 min at 4 °C to collect the supernatant for intracellular ATP detection. Creatine kinase catalyzes the production of phosphocreatine from creatine and ATP. The level of ATP was determined by detecting the phosphocreatine content though the colorimetric method of phosphomolybdic acid at 700 nm. Six replicates were performed for each group, and the experiments were repeated three times to confirm the results.

Test [2] relates to DU145 cells. Nature of the test: Cell cycle analysis (PI staining, FACS). To be noted: 2-DG 2 mM, buforin IIb 2 μM, alone or in combination, 24 h. The procedure: Cell cycle analysis was performed using the Cell Cycle Analysis Kit. Briefly, cells were seeded into 6-well culture plates at a density of 3 × 10^5 cells/mL. After treatment with 2-DG (2 mM) and buforin IIb (2 μM) alone or in combination for 24 h, cells were digested by 0.25% trypsin without EDTA, fixed in 70% cold ethanol for 5 h at 4 °C, and then stained with propidium iodide (PI) and RNase A solution for 30 min at 37 °C in the dark. The cell distribution across the cell cycle was analyzed with a FACS Vantage SE flow cytometer.

The test system of test [3] is DU145 cells. As to the kind of experiment: EdU incorporation assay (cell proliferation). To be noted: 2-DG 2 mM, buforin IIb 2 μM, alone or in combination, 24 h. The protocol:
Cultured cells were plated in 12-well plates at a density of 2 × 10^5 cells/mL and treated with buforin IIb (2 μM) and 2-DG (2 mM) alone and in combination for 24 h. Cells were then incubated with in medium containing EdU (10 μM) for 2 h, fixed with 4% paraformaldehyde for 15 min, and permeabilized with 0.2% Triton X-100 for 15 min. Cells were then incubated with EdU staining cocktail at room temperature in the dark for 30 min. After washing with PBS, cell nuclei were stained with DAPI at a concentration of 10 μg/mL for 15 min. More than five images of each well were acquired by fluorescence microscope, and the percentage of EdU-positive cells was evaluated.

Test [4] deals with DU145 cells. Nature of the test: Mitochondrial membrane potential (JC-1, flow cytometry). The settings on record: 2 mM 2-DG; 2 μM buforin IIb 12 h. The protocol: The JC-1 Assay Kit was used to measure changes in mitochondrial membrane potential. Briefly, cells (5 × 10^5 cells/mL) were seeded into 6-well plates and treated with 2-DG (2 mM) for 12 h, then treated with or without buforin IIb (2 μM) for 12 h. DU145 cells were collected, washed in PBS, and incubated with 10 μg/mL JC-1 for 30 min. The cells were then collected by centrifugation and analyzed by flow cytometry. The red fluorescence indicated JC-1 aggregates, whereas green fluorescence indicated JC-1 monomers. Aggregated JC-1 (red fluorescence) indicates a high membrane potential, whereas monomer JC-1 (green fluorescence) indicates a membrane collapse.
For orientation: In flow cytometry, cells or beads pass a laser one at a time.

Test [5] concerns Bcl-2, Bak, Bax, cytochrome c, caspase 3 in DU145 cells. Nature of the test: Western blot of apoptosis-related proteins. To be noted: 2 mM 2-DG 12 h and/or 2 μM buforin IIb 12 h. The procedure:
DU145 cells were treated with 2-DG (2 mM) for 12 h, then treated with or without buforin IIb (2 μM) for 12 h. The cells were lysed on ice for 30 min in RIPA lysis buffer, and the lysates were centrifuged at 12,000× g for 10 min at 4 °C. The supernatant was collected, separated by 12% sodium dodecyl sulfate-polyacrylamide gel electrophoresis (SDS-PAGE), and transferred onto a polyvinylidene difluoride (PVDF) membrane. After blocking with 5% skim milk in PBS, the PVDF membrane incubated with primary antibodies against Bcl-2, Bak, Bax, cytochrome C, caspase 3, and β-actin overnight at 4 °C, followed by incubating with appropriate secondary antibodies. After washing, bands were visualized by using ECL detection system according to the manufacturer’s instructions.
Background: In western blotting, separated proteins are transferred to a membrane and probed.

The test system of test [6] is DU145 cells. Nature of the test: Annexin V-FITC/PI apoptosis flow cytometry. To be noted: 2 μM buforin IIb alone or with 2 mM 2-DG, 24 h; Annexin V/PI FACS. The procedure: DU145 cells were seeded (3 × 10^5 cells/mL) into 6-well plates and treated with buforin IIb (2 μM) and 2-DG (2 mM) alone and in combination for 24 h. After collecting and washing with PBS, the cells were re-suspended in 500 μL of binding buffer, stained with FITC-conjugated Annexin V and PI, and incubated on ice in the dark for 10 min. The stained cells were analyzed by flow cytometry, and the percentage of apoptotic cells was calculated using Cell Quest software.

The subject of test [7] is DU145 cells. As to the kind of experiment: Intracellular ATP level. To be noted: 2 mM 2-DG 24 h, 2 μM buforin IIb 12 h. The procedure:
as §1

The test system of test [8] is prostate cancer cell line DU145. Nature of the test: CCK-8 cell viability assay, DU145. The settings on record: 2 μM buforin IIb alone or with 2 mM 2-DG, 24 h, CCK-8. The procedure:
Cells were seeded in 96-well plates at a density of 1 × 10^5 cells/mL in medium, and then treated with different concentrations of buforin IIb and 2-DG alone or in combination for 24 h. After treatment, 10 μL CCK-8 was added to each well, and the plates were incubated in the dark at 37 °C for 2 h. Absorbance at 450 nm was measured using a […]1 multifunction microplate reader. Each experiment was performed in triplicate, and cell viability was expressed as a percentage of the control. The drug-drug interactions between buforin IIb and 2-DG were evaluated using the combination index (CI) described by Chou and Talalay, and calculated using Compusyn software (Biosoft). CI values < 1, = 1 or > 1 indicated synergy, additivity, or antagonism, respectively.

In the case of Buforin IIb, the “lactate production, % of that in the control” value with DU145 cells [1] is roughly 80%. Further, the S/G2 population in the test with DU145 cells [2] (PBS control 46.23%) is listed as 30.06%. Further, in the test on DU145 cells [2] (PBS control 53.7%), the “G0/G1 population (%G1)” value turned out to be 69.94%. Also, the “inhibition of cell proliferation (rate)” value in the test with DU145 cells [3] was 53%. Besides, the “effect on Δψm (JC-1 green/red fluorescence ratio, words)” value in the test on DU145 cells [4] is “increased the green/red fluorescence ratio”. For the same substance, in test [5], the “Bcl-2 family protein levels” value was “downregulated Bcl-2 and upregulated Bak”; the “cytochrome c and caspase 3” value is “increased cytochrome c levels and induced the cleavage of procaspase 3”. Further, in the test with DU145 cells [6], the apoptosis turned out to be 21.45%. Moreover, the “ATP levels, % of control levels” value in the test on DU145 cells [7] stood at 30%. For the same substance, in test [8], the “inhibition of DU145 cell viability” value was 25%.
